This note sets out measurements from patent US10251865B2, “Method of activating regulatory T cells with alpha-2B adrenergic receptor agonists” (Allergan, Inc., priority 2010, dated 2019).

In assay [1] the test system is EIU rats. The assay can be described thus: Endotoxin-induced uveitis (EIU) in rats. In kind it is in vivo, rat. The method, then:
Female Lewis rats (180-200 grams) were purchased from Charles River Laboratory. Rats were footpad-injected (hind left side) with either 100 μl of 1 mg/ml LPS (Sigma) solution (in sterile pyrogen-free saline) or 150 μl of sterile pyrogen-free saline. Animals were sacrificed at 24 hours following LPS injection. Aqueous humor was collected and analyzed to determine inflammatory cell counts, levels of cytokines and chemokine concentration as well as total protein concentrations. Blood leukocyte differentiation and histopathology were also determined if required.

The test system of assay [2] is CD4+/CD25+ Treg cells. The assay can be described thus: Treg cell frequency in lymphatic organs of SNL rats (flow cytometry). In kind it is in vivo. The settings on record: SNL Rat Model of Allodynic Neuropathic Pain, FIG. 2. The method, then:
The SNL (or Chung) Model in the rat is an accepted standard animal model of neuropathic pain and is thought to mimic the human causalgia condition with respect to symptoms (guarding behavior, mechanical allodynia) and alleviation by pharmacological agents. […] The SNL Model is performed by tightly ligating the L-5 and L-6 spinal nerves, which produces tactile allodynia or sensitivity to light touch as described (Kim and Chung, 1992). Male sprague-dawley rats (100-120 grams; Charles River, Wilmington, Mass.) were anesthetized through inhalation of an isoflurane/oxygen mix. The surgical site was shaved and prepared with betadine. An incision was made from the thoracic vertebra XIII toward down the sacrum. The muscle was separated from the spinal vertebra (left side) at the L4-S2 levels. […]
To determine surface expression of CD4 (Helper T cells), CD8 (killer T cells), CD25 (activated helper T cells and regulatory T cells), CD45 (macrophage and microglial cells) and F4/80 (macrophage and microglial cells) 5×10^5 cells/100 μL FACS buffer (PBS, 0.02% sodium azide [Sigma-Aldrich] and 2% bovine serum albumin) were incubated with appropriate antibodies from BD biosciences, Mountain View, Calif. […] Expression was analyzed (FACSCalibur with CellQuest software; BD Biosciences, Mountain View, Calif.).
(In general: In flow cytometry, cells or beads pass a laser one at a time.)

The subject of assay [3] is EAAU rats. The assay is described as follows: Experimental autoimmune anterior uveitis (EAAU) in rats. In kind it is in vivo, rat. The method, then:
Male Lewis rats (180-200 g) were immunized by a single left hind-footpad injection with 150, μg (in 100 μL) of purified MAA complex from bovine eye. MAA proteins were suspended in phosphate-buffered saline (PBS, pH7.2) and emulsified (1:1 v/v) in complete Freund's adjuvant (CFA, VWR Scientific) containing 1 μg/100 μl of Pertussis Toxin (PTx) emulsion mixture. Control animals were injected with PBS emulsified with CFA and PTx.
Assessment of intraocular inflammation was conducted starting day 7 after immunization, Animals were examined every other day between day 7 and 19 post-immunization for clinical signs and symptoms of uveitis using slit lamp microscopy. Aqueous humor was collected to evaluate the number of inflammatory cells and protein levels. Cell counts were done with 10 ul with a hemocytometer under the light microscope. Protein concentration was measured with a Protein assay solution from Bio-Rad, using BSA as the protein standard. Pro-inflammatory cytokine and chemokine levels were measured on Luminex (Biosource-Invitrogen, Carlsbad, Calif.). Blood, spleen, and eyes were harvested on days 11, 14, and 19 to determine blood leukocyte differentiation, splenic T cell activation status via Flow cytometry, as well as histopathology.

Consider `CCC1=CC(Cc2c[nH]cn2)CCC1` (stereo not shown) [Compound B], for which the “protein exudation in the aqueous humor” value in assay [1] (1 mg/kg/day by osmotic minipump, vs untreated or vehicle-treated (saline) controls, FIG. 9) is “significantly inhibited”. Further, in assay [1] (FIG. 10), the “decrease on blood lymphocyte populations as a result of LPS stimulation” value is “significantly normalized” and the “increase in blood neutrophils as a result of LPS stimulation” value is given as “significantly normalized”. Moreover, in assay [2], the “frequency of spleen CD4+ T cells that are CD4+/CD25+ Treg cells” value is given as “Sustained increase”. The anterior inflammation entry in assay [3] (1 mg/kg/day from days 1-18 or days 7-18 following EAAU induction (3 days oral TID then osmotic minipump)) is “effective in partially abrogating”. Moreover, in assay [3] (EAAU rats), the “CD4+ T cell population in the spleen” value is reported as “normalized”, the “lymphocyte populations in the blood” value is “normalized” and the “neutrophil cell counts in the blood” value is “decreased”. In addition, in assay [3] (EAAU rats, FIG. 8), the “clinical scores of anterior uveitis” value was “decreased” and the “inflammatory cell numbers in the aqueous humor” value is “decreased”.
